Patent publication US8703796B2, “3H-imidazo [4, 5-B] pyridine-6-carboxamides as anti-inflammatory agents” (Boehringer Ingelheim International GmbH, priority 2008, dated 2014)

Target: T1, recombinant human mPGES-1 (Homo sapiens, UniProt O14684)
T1 construct: made in house; host or cells: Rosetta E. coli (microsomal/membrane fraction)
T1 sequence (O14684 1-152): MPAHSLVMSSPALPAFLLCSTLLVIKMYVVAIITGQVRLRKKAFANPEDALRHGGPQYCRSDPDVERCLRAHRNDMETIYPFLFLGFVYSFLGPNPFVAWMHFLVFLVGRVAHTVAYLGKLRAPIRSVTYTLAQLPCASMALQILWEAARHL
Assay: mPGES-1 inhibition, HTRF detection of PGE2
Format: biochemical
How it was run: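 E. coli microsomal enzyme, 0.1 M KPi pH 7.4 + 2.5 mM GSH; cpd (DMSO) 25 min RT; PGH2 1 min; acidic FeCl2 stop. Dilute 750-fold, HTRF (d2/Eu-cryptate anti-PGE2, overnight 4 °C), 665/620 ratio vs PGE2 standard curve.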

Row | SMILES | inhibition at 10 µM [%] | inhibition at 1 µM [%]
1 | Cn1c(Nc2c(Cl)cccc2Cl)nc2cc(C(=O)NC3CCC4(CC4)C3)cnc21 (centres unmarked) [Example 506, 2-(2,6-Dichlorophenylamino)-3-methyl-N-(spiro[2.4]heptan-5-yl)-3H-imidazo[4,5-b]pyridine-6-carboxamide] | 100 | –
2 | Cn1c(Nc2c(Cl)cccc2Cl)nc2cc(C(=O)N[C@H]3CC[C@H](C)CC3)cnc21 [Example 453, 2-(2,6-Dichlorophenylamino)-3-methyl-N-((1r,4r)-4-methylcyclohexyl)-3H-imidazo[4,5-b]pyridine-6-carboxamide] | 98 | –
3 | Cc1ccnc(Br)c1Nc1nc2cc(C(=O)N[C@H]3CC[C@H](C(F)(F)F)CC3)c(OCC(F)F)nc2n1C [Example 786, 2-(2-Bromo-4-methyl-pyridin-3-ylamino)-5-(2,2-difluoro-ethoxy)-N-(trans-4-trifluoromethyl-cyclohexyl)-3-methyl-3H-imidazo[4,5-b]pyridine-6-carboxamide] | 92 | –
4 | CC1(C)CCCC(NC(=O)c2cnc3[nH]c(Nc4c(Cl)cccc4Cl)nc3c2)C1 (centres unmarked) [Example 469, 2-(2,6-Dichlorophenylamino)-N-(3,3-dimethylcyclohexyl)-3H-imidazo[4,5-b]pyridine-6-carboxamide] | 100 | –
5 | CCCCCC[C@H](C)NC(=O)c1cnc2c(c1)nc(Nc1c(Cl)cccc1Cl)n2C [Example 471, (S)-2-(2,6-Dichlorophenylamino)-3-methyl-N-(oct-2-yl)-3H-imidazo[4,5-b]pyridine-6-carboxamide] | 99 | –
6 | COCCOc1nc2c(cc1C(=O)Nc1ccc(Br)cc1)nc(Nc1c(Cl)cncc1Cl)n2C [Example 812, 2-(3,5-Dichloro-pyridin-4-ylamino)-5-(2-methoxy-ethoxy)-N-(4-bromo-phenyl)-3-methyl-3H-imidazo[4,5-b]pyridine-6-carboxamide] | 97 | –
7 | Cn1c(Nc2c(Cl)cccc2Cl)nc2cc(C(=O)Nc3ccc(Br)cc3)cnc21 [Example 463, N-(4-Bromophenyl)-2-(2,6-dichlorophenylamino)-3-methyl-3H-imidazo[4,5-b]pyridine-6-carboxamide] | 97 | –
8 | Cn1c(Nc2c(Cl)cncc2Cl)nc2cc(C(=O)Nc3ccc(Br)cc3)c(OCC(F)F)nc21 [Example 837, 2-(3,5-Dichloro-pyridin-4-ylamino)-5-(2,2-difluoro-ethoxy)-N-(4-bromo-phenyl)-3-methyl-3H-imidazo[4,5-b]pyridine-6-carboxamide] | 96 | –
9 | Cc1ccnc(Br)c1Nc1nc2cc(C(=O)N[C@H]3CC[C@H](C(F)(F)F)CC3)c(OCC(F)F)nc2[nH]1 [Example 795, 2-(2-Bromo-4-methyl-pyridin-3-ylamino)-5-(2,2-difluoro-ethoxy)-N-(trans-4-trifluoromethyl-cyclohexyl)-3H-imidazo[4,5-b]pyridine-6-carboxamide] | 98 | –
10 | Cn1c(Nc2c(F)cccc2C(F)(F)F)nc2cc(C(=O)N[C@H]3CC[C@H](C(F)(F)F)CC3)c(OCC(F)F)nc21 [Example 780, 2-(2-Fluoro-6-trifluoromethyl-phenylamino)-5-(2,2-difluoro-ethoxy)-N-(trans-4-trifluoromethyl-cyclohexyl)-3-methyl-3H-imidazo[4,5-b]pyridine-6-carboxamide] | – | 100
11 | O=C(N[C@H]1CC[C@H](C(F)F)CC1)c1cnc2[nH]c(Nc3c(Cl)cccc3Cl)nc2c1 [Example 535, 2-(2,6-Dichlorophenylamino)-N-((1r,4r)-4-(difluoromethyl)cyclohexyl)-3H-imidazo[4,5-b]pyridine-6-carboxamide] | 100 | –
12 | CC(=O)N(C)CCOc1nc2[nH]c(Nc3c(Cl)cncc3Cl)nc2cc1C(=O)NCC(F)(F)C(F)(F)C(F)(F)C(F)(F)F [Example 809, 2-(3,5-Dichloro-pyridin-4-ylamino)-5-(2-(acetyl-methyl-amino)-ethoxy)-N-(2,2,3,3,4,4,5,5,5-nonafluoro-pentyl)-3H-imidazo[4,5-b]pyridine-6-carboxamide] | 100 | –
13 | Cn1c(Nc2c(Cl)cncc2Cl)nc2cc(C(=O)NCC(F)(F)C(F)(F)C(F)(F)C(F)(F)F)c(OCC(F)(F)F)nc21 [Example 850, 2-(3,5-Dichloro-pyridin-4-ylamino)-5-(2,2,2-trifluoro-ethoxy)-N-(2,2,3,3,4,4,5,5,5-nonafluoro-pentyl)-3-methyl-3H-imidazo[4,5-b]pyridine-6-carboxamide] | 99 | –
14 | O=C(NCC(F)(F)C(F)(F)C(F)(F)C(F)(F)F)c1cc2nc(Nc3c(Cl)cc(F)cc3Cl)[nH]c2nc1OCC(F)(F)F [Example 829, 2-(2,6-Dichloro-4-fluoro-phenylamino)-5-(2,2,2-trifluoro-ethoxy)-N-(2,2,3,3,4,4,5,5,5-nonafluoropentyl)-3H-imidazo[4,5-b]pyridine-6-carboxamide] | 100 | –
15 | CCCCCCNC(=O)c1cnc2c(c1)nc(Nc1c(Cl)cccc1Cl)n2C [Example 439, 2-(2,6-Dichlorophenylamino)-N-hexyl-3-methyl-3H-imidazo[4,5-b]pyridine-6-carboxamide] | 91 | –
16 | CCCC(CCC)NC(=O)c1cnc2c(c1)nc(Nc1c(Cl)cccc1Cl)n2C [Example 473, 2-(2,6-Dichlorophenylamino)-N-(hept-4-yl)-3-methyl-3H-imidazo[4,5-b]pyridine-6-carboxamide] | 99 | –

Now from value to molecule:

Row | inhibition at 10 µM [%] | inhibition at 1 µM [%] | SMILES
17 | 100 | – | COCCOc1nc2[nH]c(Nc3c(Cl)cncc3Cl)nc2cc1C(=O)N[C@H]1CC[C@H](C(F)(F)F)CC1 [Example 866, 2-(3,5-Dichloro-pyridin-4-ylamino)-5-(2-methoxy-ethoxy)-N-(trans-4-trifluoromethyl-cyclohexyl)-3H-imidazo[4,5-b]pyridine-6-carboxamide]
18 | 97 | – | O=C(NCc1ccccc1C(F)(F)F)c1cc2nc(Nc3c(Cl)cncc3Cl)[nH]c2nc1OC1CCOC1 (centres unmarked) [Example 790, 2-(3,5-Dichloro-pyridin-4-ylamino)-5-(tetrahydrofuran-3-yl-oxy)-N-((2-trifluoromethyl-phenyl)-methyl)-3H-imidazo[4,5-b]pyridine-6-carboxamide]
19 | 91 | – | O=C(N[C@H]1CC[C@H](C(F)(F)F)CC1)c1cc2nc(Nc3c(Cl)cc(F)cc3Cl)[nH]c2nc1OCC(F)F [Example 823, 2-(2,6-Dichloro-4-fluoro-phenylamino)-5-(2,2-difluoro-ethoxy)-N-(trans-4-trifluoromethyl-cyclohexyl)-3H-imidazo[4,5-b]pyridine-6-carboxamide]
20 | – | 100 | Cn1c(Nc2ccccc2C(F)(F)F)nc2cc(C(=O)Nc3ccc(Br)cc3)c(OCC(F)F)nc21 [Example 772, N-(4-Bromo-phenyl)-2-(2-trifluoromethyl-phenylamino)-5-(2,2-difluoroethoxy)-3-methyl-3H-imidazo[4,5-b]pyridine-6-carboxamide]
21 | 95 | – | Cn1c(Nc2c(Cl)cncc2Cl)nc2cc(C(=O)NCc3ncccc3C(F)(F)F)c(OCCF)nc21 [Example 835, 2-(3,5-Dichloro-pyridin-4-ylamino)-5-(2-fluoro-ethoxy)-N-((3-trifluoromethyl-pyridin-2-yl)-methyl)-3-methyl-3H-imidazo[4,5-b]pyridine-6-carboxamide]
22 | 98 | – | O=C(NCc1ccccc1C(F)(F)F)c1cc2nc(Nc3c(Cl)cc(F)cc3Cl)[nH]c2nc1OCC(F)(F)F [Example 828, 2-(2,6-Dichloro-4-fluoro-phenylamino)-5-(2,2,2-trifluoro-ethoxy)-N-(2-trifluoromethyl-benzyl)-3H-imidazo[4,5-b]pyridine-6-carboxamide]
23 | 100 | – | COc1nc2c(cc1C(=O)NCc1ncccc1C(F)(F)F)nc(Nc1c(Cl)cccc1Cl)n2C [Example 860, 2-(2,6-Dichloro-phenylamino)-5-methoxy-N-((3-trifluoromethyl-pyridin-2-yl)-methyl)-3-methyl-3H-imidazo[4,5-b]pyridine-6-carboxamide]
24 | 99 | – | O=C(N[C@H]1CC[C@H](C(F)(F)F)CC1)c1cc2nc(Nc3c(Cl)cncc3Cl)[nH]c2nc1OCC(F)F [Example 862, 2-(3,5-Dichloro-pyridin-4-ylamino)-5-(2,2-difluoro-ethoxy)-N-(trans-4-trifluoromethyl-cyclohexyl)-3H-imidazo[4,5-b]pyridine-6-carboxamide]
25 | 89 | – | O=C(Nc1ccc(Br)cc1)c1cc2nc(Nc3c(Cl)cncc3Cl)[nH]c2nc1OC1CCOC1 (centres unmarked) [Example 791, 2-(3,5-Dichloro-pyridin-4-ylamino)-5-(tetrahydrofuran-3-yl-oxy)-N-(4-bromo-phenyl)-3H-imidazo[4,5-b]pyridine-6-carboxamide]
26 | 99 | – | O=C(Nc1cc(C(F)(F)F)ccn1)c1cc2nc(Nc3c(Cl)cncc3Cl)[nH]c2nc1OCC(F)F [Example 803, 2-(3,5-Dichloro-pyridin-4-ylamino)-5-(2,2-difluoro-ethoxy)-N-(4-trifluoromethyl-pyridin-2-yl)-3H-imidazo[4,5-b]pyridine-6-carboxamide]
27 | 91 | – | O=C(Nc1ccc(Cl)c(F)c1)c1cnc2[nH]c(Nc3c(Cl)cccc3Cl)nc2c1 [Example 154, 2-(2,6-Dichloro-phenylamino)-3H-imidazo[4,5-b]-pyridine-6-carboxylic acid (4-chloro-3-fluoro-phenyl)-amide]
28 | 90 | – | O=C(Nc1cc(C(F)(F)F)ccn1)c1cc2nc(Nc3c(Cl)cc(F)cc3Cl)[nH]c2nc1OCC(F)F [Example 821, 2-(2,6-Dichloro-4-fluoro-phenylamino)-5-(2,2-difluoro-ethoxy)-N-(4-trifluoromethyl-pyridin-2-yl)-3H-imidazo[4,5-b]pyridine-6-carboxamide]
29 | – | 100 | O=C(Nc1ccc(Br)cc1)c1cc2nc(Nc3c(F)cccc3Cl)[nH]c2nc1OCC(F)F [Example 776, N-(4-Bromo-phenyl)-2-(2-fluoro-6-chloro-phenylamino)-5-(2,2-difluoroethoxy)-3H-imidazo[4,5-b]pyridine-6-carboxamide]
